The values below come from BindingDB's records for doi:10.1021/acs.jmedchem.5b01913 (Dalian University of Technology, 2016).

A short description of test [1]: Inhibition of Bcl2 in human DMS53 cells assessed as growth inhibition.
A short description of test [2]: Inhibition of MDM2 in human HCT116 p53+/+ cells assessed as growth inhibition.

As to `CC(C)Oc1ccc(C(=O)Nc2c(C(=O)O)nn(-c3ccc(Oc4ccccc4)cc3)c2-c2ccc(OC(C)C)cc2)cc1`, the IC50 in test [1] and in test [2] was 5 µM throughout.

For orientation: IC50 means the concentration at which inhibition is half-maximal.
